Source: US20250313563A1, “GLYCOGEN SYNTHASE KINASE 3 INHIBITORS AND USES THEREOF” (The Broad Institute, Inc., priority 2022, published 2025)
Like-named read-outs stand apart in the source and are kept apart here.

Columns and labels:
[1] = molecular target: GSK3α (GST-full length GSK3α) (Homo sapiens (Human), UniProt P49840); assay: GSK3α TR-FRET kinase assay; format: biochemical
How it was run: (§1)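 Readout: anti-pSer641 Tb antibody/streptavidin-d2 signal after 60 min, expressed as 665/615 ratio and fitted versus log concentration for IC50. Enzyme: 1 nM GST-GSK3 (α or β), compound-preincubated 30 min. Conditions: pH 7.5 Tris buffer with MgCl2, DTT, BSA; ATP at 4 or 2 μM, or 1 mM; 100 min.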

[2] = molecular target: GSK3b (GST-full length GSK3b) (Homo sapiens (Human), UniProt P49841); assay: GSK3b TR-FRET kinase assay; format: biochemical
GSK3b (GST-full length GSK3b), sequence (P49841 whole entry): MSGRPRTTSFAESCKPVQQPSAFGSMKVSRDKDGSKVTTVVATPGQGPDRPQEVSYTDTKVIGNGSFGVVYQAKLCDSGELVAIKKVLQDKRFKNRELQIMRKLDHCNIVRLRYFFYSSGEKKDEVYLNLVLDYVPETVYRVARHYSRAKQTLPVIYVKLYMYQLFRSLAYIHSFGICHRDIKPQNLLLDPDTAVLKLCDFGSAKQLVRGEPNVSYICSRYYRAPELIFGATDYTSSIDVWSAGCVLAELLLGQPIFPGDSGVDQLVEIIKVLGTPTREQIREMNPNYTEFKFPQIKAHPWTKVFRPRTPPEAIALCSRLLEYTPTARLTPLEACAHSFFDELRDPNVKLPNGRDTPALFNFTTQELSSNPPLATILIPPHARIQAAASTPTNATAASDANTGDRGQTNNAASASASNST
How it was run: as §1

[3] = 1 nM GSK3α, 4 μM ATP, 30 minute preincubation, geometric mean, read-out: GSK3-A TR-FRET BIOCHEMICAL (TR-FRET), GMean, IC50
[4] = 1 nM GSK3b, 2 μM ATP, 30 minute preincubation, geometric mean, read-out: GSK3-B TR-FRET BIOCHEMICAL (TR-FRET), GMean, IC50
[5] = 1 nM GSK3α, 4 μM ATP, 30 minute preincubation, Table 16, read-out: GSK3-A TR-FRET BIOCHEMICAL (TR-FRET)
[6] = 1 nM GSK3b, 2 μM ATP, 30 minute preincubation, Table 16, read-out: GSK3-B TR-FRET BIOCHEMICAL (TR-FRET)
[7] = read-out: GSK3-A (TR-FRET 1 mM ATP), GMean, IC50, 1 mM ATP, geometric mean
[8] = read-out: GSK3-B (TR-FRET 1 mM ATP), GMean, IC50, 1 mM ATP, geometric mean

GSK3α (GST-full length GSK3α), sequence (P49840 whole entry): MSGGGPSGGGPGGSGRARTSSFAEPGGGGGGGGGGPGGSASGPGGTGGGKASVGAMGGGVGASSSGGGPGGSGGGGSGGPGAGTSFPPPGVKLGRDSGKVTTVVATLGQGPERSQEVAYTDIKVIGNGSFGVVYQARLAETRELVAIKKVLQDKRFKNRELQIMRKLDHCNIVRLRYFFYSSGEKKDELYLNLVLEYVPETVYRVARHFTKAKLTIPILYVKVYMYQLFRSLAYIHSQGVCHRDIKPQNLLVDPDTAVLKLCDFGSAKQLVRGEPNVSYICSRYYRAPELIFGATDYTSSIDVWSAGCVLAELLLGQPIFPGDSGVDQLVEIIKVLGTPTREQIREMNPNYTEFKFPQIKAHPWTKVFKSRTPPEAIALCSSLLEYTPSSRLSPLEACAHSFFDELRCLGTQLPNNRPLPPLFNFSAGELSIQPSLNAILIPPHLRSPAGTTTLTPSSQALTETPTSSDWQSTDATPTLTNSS

Row | Compound | IC50 [1, 3] | IC50 [2, 4] | further results
1 | CC[C@@]1(c2cccc(-c3cnn4c3CCCC4)c2)C2=C(CC(C)(C)NC2=O)Nc2[nH]nc(C(F)(F)F)c21 [Compound 948775] | ≤ 100 nM | ≤ 100 nM | IC50 ([1]; GSK3-A (TR-FRET 1 mM ATP), GMean, IC50, 1 mM ATP, geometric mean): ≤ 100 nM; IC50 ([2]; GSK3-B (TR-FRET 1 mM ATP), GMean, IC50, 1 mM ATP, geometric mean): 100 to 1000 nM
2 | CCC1(c2cccc(S(=O)(=O)C3CC3)c2)C2=C(CC(C)(C)NC2=O)Nc2n[nH]c(C(F)(F)F)c21 (stereo not drawn) [Compound 948776] | 100 to 1000 nM | 100 to 1000 nM | –
3 | CC[C@@]1(c2cccc(-c3ccncc3F)c2)C2=C(CC(C)(C)NC2=O)Nc2[nH]nc(C(F)(F)F)c21 [Compound 948777] | ≤ 100 nM | ≤ 100 nM | –
4 | CCC1(c2cccc(C3CN(C(C)=O)C3)c2)C2=C(CC(C)(C)CC2=O)Nc2n[nH]cc21 (stereo not drawn) [Compound 948779] | – | – | IC50 [1, 5]: 1000 to 5000 nM; IC50 [2, 6]: > 5000 nM
5 | CCC1(c2cccc(OCC(F)F)c2)C2=C(CC(C)(C)CC2=O)Nc2n[nH]cc21 (stereo not drawn) [Compound 948793] | – | – | IC50 [1, 5]: ≤ 100 nM; IC50 [1, 7]: 100 to 1000 nM; IC50 [2, 6]: ≤ 100 nM; IC50 [2, 8]: > 5000 nM
6 | CC[C@@]1(c2cccc(-c3ccnc4c(F)cccc34)c2)C2=C(CC(C)(C)NC2=O)Nc2n[nH]cc21 [Compound 948813] | 1000 to 5000 nM | > 5000 nM | –
7 | CC[C@@]1(c2cccc(-c3cnn(C)c3C#N)c2)C2=C(CC(C)(C)NC2=O)Nc2n[nH]cc21 [Compound 948814] | > 5000 nM | > 5000 nM | –
8 | CC[C@]1(c2cccc(-c3cnn(C)c3C(F)(F)F)c2)C2=C(CC(C)(C)NC2=O)Nc2n[nH]cc21 [Compound 948815] | ≤ 100 nM | 100 to 1000 nM | IC50 [1, 7]: 100 to 1000 nM; IC50 [2, 8]: > 5000 nM
9 | CC[C@@]1(c2cccc(-c3cnn(C(F)F)c3)c2)C2=C(CC(C)(C)NC2=O)Nc2n[nH]cc21 [Compound 948816] | > 5000 nM | > 5000 nM | –
10 | CC[C@@]1(c2cccc(-c3ccnc4c3cnn4C)c2)C2=C(CC(C)(C)NC2=O)Nc2n[nH]cc21 [Compound 948817] | > 5000 nM | > 5000 nM | –
11 | CC[C@@]1(c2cccc(-c3c(C)c(C)nn3C)c2)C2=C(CC(C)(C)NC2=O)Nc2n[nH]cc21 [Compound 948818] | > 5000 nM | > 5000 nM | –
12 | CC[C@@]1(c2cccc(-c3ccnc4cnccc34)c2)C2=C(CC(C)(C)NC2=O)Nc2n[nH]cc21 [Compound 948819] | 1000 to 5000 nM | > 5000 nM | –
13 | CCC1(c2cccc(-c3cnn(C)c3C(F)(F)F)c2)C2=C(CC(C)(C)NC2=O)Nc2n[nH]cc21 (stereo not drawn) [Compound 948826] | 1000 to 5000 nM | > 5000 nM | –
14 | CCC1(c2cccc(-c3cnn(C)c3C#N)c2)C2=C(CC(C)(C)NC2=O)Nc2n[nH]cc21 (stereo not drawn) [Compound 948827] | ≤ 100 nM | 100 to 1000 nM | –
15 | CC[C@@]1(c2cccc(-c3c(C)cncc3C)c2)C2=C(CC(C)(C)NC2=O)Nc2n[nH]cc21 [Compound 948829] | > 5000 nM | > 5000 nM | –
16 | CCC1(c2cccc(-c3ccnc(C)c3)c2)C2=C(CC(C)(C)NC2=O)Nc2n[nH]c(Cl)c21 (stereo not drawn) [Compound 948998] | ≤ 100 nM | ≤ 100 nM | IC50 [1, 7]: 100 to 1000 nM; IC50 [2, 8]: 1000 to 5000 nM
17 | CCC1(c2cccc(-c3ccncc3F)c2)C2=C(CC(C)(C)NC2=O)Nc2n[nH]c(F)c21 (stereo not drawn) [Compound 948999] | ≤ 100 nM | 100 to 1000 nM | –
18 | CC[C@]1(c2cccc(N3CCOCC3)c2)C2=C(CC(C)(C)NC2=O)Nc2n[nH]c(C(F)(F)F)c21 [Compound 949000] | 100 to 1000 nM | 100 to 1000 nM | –
19 | CCC1(c2cccc(-c3ccnc(C)c3)c2)C2=C(CC(C)(C)NC2=O)Nc2n[nH]c(F)c21 (stereo not drawn) [Compound 949001] | 100 to 1000 nM | 100 to 1000 nM | –
20 | CC[C@]1(c2cccc(-c3cnn(C)c3)c2)C2=C(CC(C)(C)NC2=O)Nc2n[nH]c(F)c21 [Compound 949002] | 1000 to 5000 nM | > 5000 nM | –

Row | Compound | IC50 [1, 3] | IC50 [2, 4] | further results
21 | CCC1(c2cccc(-c3cncn3C)c2)C2=C(CC(C)(C)NC2=O)Nc2n[nH]c(C(F)(F)F)c21 (stereo not drawn) [Compound 949003] | 100 to 1000 nM | 100 to 1000 nM | –
22 | CCC1(c2cccc(-c3ccnc(C)c3)c2)C2=C(CC(C)(C)N(C)C2=O)Nc2n[nH]cc21 (stereo not drawn) [Compound 949004] | ≤ 100 nM | 100 to 1000 nM | –
23 | CCC1(c2cccc(-c3cn(C)nc3C)c2)C2=C(CC(C)(C)N(C)C2=O)Nc2n[nH]cc21 (stereo not drawn) [Compound 949005] | ≤ 100 nM | ≤ 100 nM | IC50 [1, 7]: ≤ 100 nM; IC50 [2, 8]: 1000 to 5000 nM
24 | CC[C@]1(c2cccc(C(F)F)c2)C2=C(CC(C)(C)NC2=O)Nc2n[nH]cc21 [Compound 949006] | ≤ 100 nM | 100 to 1000 nM | IC50 [1, 7]: 100 to 1000 nM; IC50 [2, 8]: > 5000 nM
25 | CC[C@@]1(c2cccc(C(F)F)c2)C2=C(CC(C)(C)NC2=O)Nc2n[nH]cc21 [Compound 949007] | 1000 to 5000 nM | > 5000 nM | –
26 | CCC1(c2cccc(-c3cn(C)nc3C)c2)C2=C(CC(C)(C)N(C)C2=O)Nc2n[nH]cc21 (stereo not drawn) [Compound 949008] | 1000 to 5000 nM | > 5000 nM | –
27 | CCC1(c2cccc(-c3ccnc(C)c3)c2)C2=C(CC(C)(C)N(C)C2=O)Nc2n[nH]cc21 (stereo not drawn) [Compound 949009] | > 5000 nM | > 5000 nM | –
28 | CCC1(c2cccc(-c3cncn3C)c2)C2=C(CC(C)(C)NC2=O)Nc2n[nH]c(C(F)(F)F)c21 (stereo not drawn) [Compound 949010] | ≤ 100 nM | ≤ 100 nM | IC50 [1, 7]: ≤ 100 nM; IC50 [2, 8]: ≤ 100 nM
29 | CCC1(c2cccc(-c3cnn(C)c3)c2)C2=C(CC(C)(C)NC2=O)Nc2n[nH]c(F)c21 (stereo not drawn) [Compound 949011] | ≤ 100 nM | 100 to 1000 nM | –
30 | CC[C@@]1(c2cccc(-c3ccnc(C)c3)c2)C2=C(CC(C)(C)NC2=O)Nc2n[nH]c(F)c21 [Compound 949012] | ≤ 100 nM | 100 to 1000 nM | –
31 | CC[C@@]1(c2cccc(N3CCOCC3)c2)C2=C(CC(C)(C)NC2=O)Nc2n[nH]c(C(F)(F)F)c21 [Compound 949013] | ≤ 100 nM | ≤ 100 nM | –
32 | CCC1(c2cccc(C(F)(F)F)c2)C2=C(CCN(c3cccc(C)c3)C2=O)Nc2n[nH]cc21 (stereo not drawn) [Compound 949040] | ≤ 100 nM | 100 to 1000 nM | –
33 | CC[C@]1(c2cccc(C(F)(F)F)c2)C2=C(CCN(c3cccc(C)c3)C2=O)Nc2n[nH]cc21 [Compound 949041] | 1000 to 5000 nM | > 5000 nM | –
34 | CCC1(c2cccc(C3CCCC3)c2)C2=C(CC(C)(C)CC2=O)Nc2n[nH]cc21 (stereo not drawn) [Compound 949082] | – | – | IC50 ([1]; 1 nM GSK3α, 4 μM ATP, 30 minute preincubation, Table 16, read-out: GSK3-A TR-FRET BIOCHEMICAL (TR-FRET), IC50): ≤ 100 nM; IC50 ([2]; 1 nM GSK3b, 2 μM ATP, 30 minute preincubation, Table 16, read-out: GSK3-B TR-FRET BIOCHEMICAL (TR-FRET), IC50): ≤ 100 nM
35 | CC[C@]1(c2cccc(-c3cnn(CCOC)c3)c2)C2=C(CC(C)(C)NC2=O)Nc2n[nH]cc21 [Compound 949105] | ≤ 100 nM | 100 to 1000 nM | –
36 | CC[C@@]1(c2cccc(-c3cnn(C(C)(C)C)c3)c2)C2=C(CC(C)(C)NC2=O)Nc2n[nH]cc21 [Compound 949107] | > 5000 nM | > 5000 nM | –
37 | CC[C@]1(c2cccc(-c3cc(OC)ncc3F)c2)C2=C(CC(C)(C)NC2=O)Nc2n[nH]cc21 [Compound 949109] | ≤ 100 nM | 100 to 1000 nM | –
38 | CCC1(c2cccc(-c3cn(C)nc3C(C)C)c2)C2=C(CC(C)(C)NC2=O)Nc2n[nH]cc21 (stereo not drawn) [Compound 949111] | 100 to 1000 nM | 1000 to 5000 nM | –
39 | CC[C@]1(c2cccc(-c3cnn(C(C)(C)C)c3)c2)C2=C(CC(C)(C)NC2=O)Nc2n[nH]cc21 [Compound 949112] | ≤ 100 nM | 100 to 1000 nM | IC50 [1, 7]: > 5000 nM; IC50 [2, 8]: > 5000 nM
40 | CC[C@]1(c2cccc(OCC(F)F)c2)C2=C(CC(C)(C)CC2=O)Nc2n[nH]cc21 [Compound 949113] | – | – | IC50 [1, 5]: 1000 to 5000 nM; IC50 [2, 6]: > 5000 nM
